According to ChEMBL document CHEMBL5209577, “Flow cytometry transport assay for SLC2A1 using HEK293 JumpIN TRex SLC2A1 WT-OE cells” (2022):

Target: T1, Solute carrier family 2, facilitated glucose transporter member 1 (Homo sapiens, UniProt P11166)
T1 sequence (P11166 whole entry): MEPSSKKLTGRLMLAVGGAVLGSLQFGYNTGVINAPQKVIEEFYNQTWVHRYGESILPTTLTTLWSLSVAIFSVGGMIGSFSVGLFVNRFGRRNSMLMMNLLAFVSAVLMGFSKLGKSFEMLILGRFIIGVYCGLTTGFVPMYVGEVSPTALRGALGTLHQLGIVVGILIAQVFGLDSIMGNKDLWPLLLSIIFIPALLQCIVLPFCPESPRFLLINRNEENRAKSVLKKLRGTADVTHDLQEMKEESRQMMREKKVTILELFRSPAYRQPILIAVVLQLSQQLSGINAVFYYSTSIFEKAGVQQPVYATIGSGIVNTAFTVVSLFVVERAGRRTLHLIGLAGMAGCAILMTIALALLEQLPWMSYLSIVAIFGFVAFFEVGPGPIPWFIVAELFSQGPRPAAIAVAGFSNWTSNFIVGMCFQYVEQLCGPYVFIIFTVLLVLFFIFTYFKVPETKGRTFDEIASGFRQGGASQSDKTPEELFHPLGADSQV
Assay: Inhibition of the Glucose Transporter (GLUT1, SLC2A1) as assessed by a FRET based flow cytometry assay using a genetically-encoded biosensor for measuring free glucose (FLII12Pglu-700uDelta6) in HEK293 JumpIN TRex SLC2A1 WT-OE cells (PubChem AID: 1794830)
Assay type: functional, cell-based

EC50 [µM] | IC50 [µM] | Compound
527 |  | OC[C@H]1OC(O)[C@H](O)[C@@H](O)[C@@H]1O (some centres not stated) [DEXTROSE]
 | > 10 | O=C(Oc1cccc(F)c1OC(=O)c1cccc(O)c1)c1cccc(O)c1
